Several values for one entry are separate records, joined by “and”; a condition that tells them apart may be missing. Equal entries are not always repeated. Toxic doses and inconclusive results are not listed.

This test deals with BDF1 mice, P388 leukemia ip, median survival T/C. Briefly: NCI In Vivo Anticancer Drug Screen. Data for tumor model P388 Leukemia (intraperitoneal) in B6D2F1 (BDF1) mice. The note with it: endpoint: median survival time, higher = longer survival. An outline of the steps:
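Antitumour effect was judged in vivo: survival in drug-treated mice, normalised to that of vehicle-dosed controls, gives the reported T/C.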

Setting [1] is: dose: 100.0 mg/kg/injection, schedule: Q04DX003 (ip), vehicle: saline with Tween-80.
Where [2] appears, read: dose: 200.0 mg/kg/injection, schedule: Q04DX003 (ip), vehicle: saline with Tween-80.
[3] abbreviates: dose: 400.0 mg/kg/injection, schedule: Q04DX003 (ip), vehicle: saline with Tween-80.
The mark [4] stands for this setting: dose: 25.0 mg/kg/injection, schedule: Q01DX009 (ip), vehicle: saline with Tween-80.
[5] abbreviates: dose: 25.0 mg/kg/injection, schedule: Q04DX003 (ip), vehicle: saline with Tween-80.
Setting [6] is: dose: 50.0 mg/kg/injection, schedule: Q01DX009 (ip), vehicle: saline with Tween-80.
Where [7] appears, read: dose: 100.0 mg/kg/injection, schedule: Q01DX009 (ip), vehicle: saline with Tween-80.
The mark [8] stands for this setting: dose: 12.5 mg/kg/injection, schedule: Q01DX009 (ip), vehicle: saline with Tween-80.
The mark [9] stands for this setting: dose: 200.0 mg/kg/injection, schedule: Q01DX009 (ip), vehicle: saline with Tween-80.
The mark [10] stands for this setting: dose: 100.0 mg/kg/injection, schedule: Q01DX009 (ip), vehicle: saline.

In the case of `COc1ccc2[nH]c(=S)[nH]c(=S)c2c1`, the T/C reads like this: under setting [1], 92 % of control; under setting [2], 91 % of control; under setting [3], 100 % of control.
On to `CCNC(C)(C)C(O)c1ccc(Cl)s1` (stereo not drawn), for which the T/C is 105 % of control under setting [4]; 102 % of control under setting [5]; 88 % of control under setting [6]; 100 % of control (dose: 50.0 mg/kg/injection, schedule: Q04DX003 (ip), vehicle: saline with Tween-80); 88 % of control under setting [7]; 86 % of control and 101 % of control under setting [1]. The T/C reads like this: under setting [2], 88 % of control and 104 % of control; under setting [3], 92 % of control.
For `Nc1cccc(NC=O)c1`, the T/C reads like this: under setting [8], 100 % of control; under setting [4], 108 % of control; under setting [6], 95 % of control.
Consider `N#Cc1cn(C2OC(CO)C(O)C2O)c2ncnc(N)c12` (stereo not drawn), for which the T/C runs as follows: (dose: 0.37 mg/kg/injection, schedule: Q04DX003 (ip), vehicle: other) 163 % of control; (dose: 0.38 mg/kg/injection, schedule: Q01DX009 (ip), vehicle: other) 105 % of control; (dose: 0.56 mg/kg/injection, schedule: Q04DX003 (ip), vehicle: other) 159 % of control; (dose: 0.83 mg/kg/injection, schedule: Q04DX003 (ip), vehicle: other) 172 % of control; (dose: 0.88 mg/kg/injection, schedule: Q04DX003 (ip), vehicle: other) 154 % of control; (dose: 1.25 mg/kg/injection, schedule: Q04DX003 (ip), vehicle: other) 204 % of control. Moreover, the T/C was 200 % of control (dose: 1.33 mg/kg/injection, schedule: Q04DX003 (ip), vehicle: other); 150 % of control (dose: 2.0 mg/kg/injection, schedule: Q04DX003 (ip), vehicle: other); 100 % of control (dose: 3.0 mg/kg/injection, schedule: Q04DX003 (ip), vehicle: other).
`CC(C)CCCC(C)C1CCC2C3CC=C4CC(O)CCC4(C)C3CCC12C` (stereo not drawn) (tested in a mixture with another compound): the T/C runs as follows: (dose: 25.0 mg/kg/injection, schedule: Q04DX003 (ip), vehicle: alcohol) 90 % of control; (dose: 50.0 mg/kg/injection, schedule: Q04DX003 (ip), vehicle: alcohol) 100 % of control; (dose: 56.25 mg/kg/injection, schedule: Q01DX009 (ip), vehicle: Klucel (hydroxypropylcellulose) (HPC)) 95 % of control; (dose: 100.0 mg/kg/injection, schedule: Q04DX003 (ip), vehicle: alcohol) 105 % of control; (dose: 112.5 mg/kg/injection, schedule: Q01DX009 (ip), vehicle: Klucel (hydroxypropylcellulose) (HPC)) 100 % of control; (dose: 150.0 mg/kg/injection, schedule: Q04DX003 (ip), vehicle: Klucel (hydroxypropylcellulose) (HPC)) 100 % of control. Besides, the T/C was 104 % of control (dose: 225.0 mg/kg/injection, schedule: Q01DX009 (ip), vehicle: Klucel (hydroxypropylcellulose) (HPC)) and 104 % of control (dose: 225.0 mg/kg/injection, schedule: Q04DX003 (ip), vehicle: Klucel (hydroxypropylcellulose) (HPC)).
With `COC(OC)C1(O)CC(C(C)C)OC(=O)N1` (stereo not drawn), the T/C was 97 % of control (dose: 50.0 mg/kg/injection, schedule: Q04DX003 (ip), vehicle: saline) and 105 % of control (dose: 100.0 mg/kg/injection, schedule: Q04DX003 (ip), vehicle: saline).
As to `CC(=O)Nc1c(Cl)c(Cl)c2c(c1Cl)C(=O)c1cc(Cl)ccc1-2`, the T/C reads like this: under setting [7], 90 % of control; under setting [1], 90 % of control; under setting [2], 90 % of control; under setting [3], 95 % of control.
As to `CC1OC(O[C@@H]2C=C3CC[C@@H]4[C@H](CC[C@]5(C)[C@@H](c6ccc(=O)oc6)CC[C@]45O)[C@@]3(C)CC2)C(O)C(OC2OC(CO)C(O)C(O)C2O)C1O` (stereo partly drawn), the T/C by setting is: (dose: 0.8 mg/kg/injection, schedule: Q01DX010 (sc), vehicle: steriod suspending solution) 100 % of control; (dose: 1.6 mg/kg/injection, schedule: Q01DX010 (sc), vehicle: steriod suspending solution) 95 % of control; (dose: 2.0 mg/kg/injection, schedule: Q01DX010 (ip), vehicle: carboxymethylcellulose (CMC)) 110 % of control; (dose: 3.25 mg/kg/injection, schedule: Q01DX010 (sc), vehicle: steriod suspending solution) 110 % of control; (dose: 4.0 mg/kg/injection, schedule: Q01DX010 (ip), vehicle: carboxymethylcellulose (CMC)) 100 % of control; (dose: 7.5 mg/kg/injection, schedule: Q01DX010 (sc), vehicle: steriod suspending solution) 115 % of control. Moreover, the T/C is, setting by setting: (dose: 8.0 mg/kg/injection, schedule: Q01DX010 (ip), vehicle: carboxymethylcellulose (CMC)) 95 % of control; (dose: 15.0 mg/kg/injection, schedule: Q01DX010 (sc), vehicle: steriod suspending solution) 105 % of control; (dose: 30.0 mg/kg/injection, schedule: Q01DX010 (sc), vehicle: steriod suspending solution) 100 % of control.
In the case of `COc1ccc(C(=O)CC(C#N)c2ccc(OC)cc2)cc1` (stereo not drawn), the T/C is, setting by setting: under setting [6], 106 % of control; under setting [7], 106 % of control; under setting [9], 101 % of control.
As to `CC(=O)CC(C)=O.CC(=O)CC(C)=O.O.O.[Ni]`, the T/C is, setting by setting: (dose: 6.25 mg/kg/injection, schedule: Q04DX003 (ip), vehicle: saline) 108 % of control; (dose: 12.5 mg/kg/injection, schedule: Q04DX003 (ip), vehicle: saline) 104 % of control; (dose: 25.0 mg/kg/injection, schedule: Q04DX003 (ip), vehicle: saline) 114 % of control.
Turning to `CCCCCCOc1cccc(OCCCC[N+]2(CC)CCCCC2)c1`, the T/C (dose: 6.25 mg/kg/injection, schedule: Q01DX009 (ip), vehicle: saline) was 108 % of control.
`CCn1cnc(-c2ccccc2)c1-c1ccccc1`: the T/C under setting [8] was 100 % of control, the T/C under setting [4] is 104 % of control and the T/C under setting [6] was 100 % of control.
On to `O=C(/C=C(\Cl)C(=O)NO)NO`, for which the T/C was 103 % of control (dose: 11.0 mg/kg/injection, schedule: Q01DX009 (ip), vehicle: saline); 107 % of control (dose: 16.0 mg/kg/injection, schedule: Q01DX009 (ip), vehicle: saline); 154 % of control under setting [10].
For `O=NN(CCF)C(=O)NC1CCCCC1`, the T/C is 90 % of control (dose: 1.0 mg/kg/injection, schedule: Q04DX003 (ip), vehicle: saline with Tween-80); 105 % of control (dose: 2.0 mg/kg/injection, schedule: Q04DX003 (ip), vehicle: saline with Tween-80); 120 % of control (dose: 4.0 mg/kg/injection, schedule: Q04DX003 (ip), vehicle: saline with Tween-80); 217 % of control (dose: 6.25 mg/kg/injection, schedule: Q01DX009 (ip), vehicle: saline with Tween-80); 260 % of control under setting [8]; 272 % of control (dose: 16.5 mg/kg/injection, schedule: Q04DX003 (ip), vehicle: saline with Tween-80). For the same compound, the T/C is 121 % of control under setting [4]; 95 % of control under setting [5]; 95 % of control (dose: 37.5 mg/kg/injection, schedule: Q04DX003 (ip), vehicle: saline with Tween-80).
Take `OCc1cccnc1`: the T/C by setting is: (dose: 50.0 mg/kg/injection, schedule: Q01DX009 (ip), vehicle: saline) 93 % of control; under setting [10], 100 % of control; (dose: 200.0 mg/kg/injection, schedule: Q01DX009 (ip), vehicle: saline) 100 % of control; (dose: 400.0 mg/kg/injection, schedule: Q01DX009 (ip), vehicle: saline) 108 % of control.
For the compound `N#CSc1ncnc2nc[nH]c12`, the T/C is, setting by setting: (dose: 3.0 mg/kg/injection, schedule: Q01DX009 (ip), vehicle: alkali diluted with saline) 110 % of control; (dose: 3.0 mg/kg/injection, schedule: Q04DX003 (ip), vehicle: alkali diluted with saline) 100 % of control; (dose: 4.0 mg/kg/injection, schedule: Q01DX009 (ip), vehicle: alkali diluted with saline) 95 % of control; (dose: 6.0 mg/kg/injection, schedule: Q01DX009 (ip), vehicle: alkali diluted with saline) 116 % of control; (dose: 6.0 mg/kg/injection, schedule: Q04DX003 (ip), vehicle: alkali diluted with saline) 95 % of control; (dose: 9.0 mg/kg/injection, schedule: Q01DX009 (ip), vehicle: alkali diluted with saline) 95 % of control. The T/C by setting is: (dose: 12.0 mg/kg/injection, schedule: Q01DX009 (ip), vehicle: alkali diluted with saline) 120 % of control; (dose: 12.0 mg/kg/injection, schedule: Q04DX003 (ip), vehicle: alkali diluted with saline) 100 % of control and 113 % of control.
Take `OCC1CC1c1ccccc1` (stereo not drawn): the T/C was 101 % of control under setting [6], 102 % of control under setting [7] and 109 % of control under setting [9].
